This is an account of results in patent US11072634B2, “Inhibitors of transglutaminases” (Zedira GmbH, priority 2016, dated 2021).

Data set [1] concerns CaCo2 and Huh7 cells. Description: Cytotoxicity of transglutaminase inhibitors (BrdU and EZ4U). The conditions noted are these: highest concentration measured 1 mM. The data set is classed as cell-based, human. On the procedure: The following cell lines are used for determination of cytotoxicity: • CaCo2 (human colon carcinoma cell line) • Huh7 (human liver carcinoma cell line).
Cells are cultivated in DMEM/10% FCS at 37° C. and 5% CO2 in a 96 well plate with an initial seeding density of 2×10^4 cells/well.
Transglutaminase inhibitors are added to the cells with final concentrations from 0.1 μM to 1 mM one hour after seeding. The different inhibitor dilutions are prepared in DMSO, resulting in a final concentration of 1% (v/v) DMSO in every well (2 μl inhibitor in 200 μl cell culture medium). Cycloheximide (2.5 μg/ml) and Camptothecin (0.2 μg/ml) are used as control compounds. All measurements are performed in triplicates.
Cytotoxicity of transglutaminase inhibitors is evaluated with two different assays:
Determination of proliferation using Cell Proliferation ELISA, BrdU (Roche, Cat. No. 11647229001).
After 24 h of incubation with inhibitors or controls, BrdU is added to the cells. After further incubation for 18 h, the cells are fixed and cellular DNA becomes denatured. […] Substrate solution is added and absorbance at 450 nm is recorded. […]
After 48 h of incubation with inhibitors or controls, the tetrazolium substrate is added to the cells. Substrate turnover by the cells is measured over two hours at 450 nm (using 630 nm was reference wavelength).

Data set [2] has as its target T1, TG2 (Homo sapiens, UniProt P21980).
T1 sequence (P21980 1-687): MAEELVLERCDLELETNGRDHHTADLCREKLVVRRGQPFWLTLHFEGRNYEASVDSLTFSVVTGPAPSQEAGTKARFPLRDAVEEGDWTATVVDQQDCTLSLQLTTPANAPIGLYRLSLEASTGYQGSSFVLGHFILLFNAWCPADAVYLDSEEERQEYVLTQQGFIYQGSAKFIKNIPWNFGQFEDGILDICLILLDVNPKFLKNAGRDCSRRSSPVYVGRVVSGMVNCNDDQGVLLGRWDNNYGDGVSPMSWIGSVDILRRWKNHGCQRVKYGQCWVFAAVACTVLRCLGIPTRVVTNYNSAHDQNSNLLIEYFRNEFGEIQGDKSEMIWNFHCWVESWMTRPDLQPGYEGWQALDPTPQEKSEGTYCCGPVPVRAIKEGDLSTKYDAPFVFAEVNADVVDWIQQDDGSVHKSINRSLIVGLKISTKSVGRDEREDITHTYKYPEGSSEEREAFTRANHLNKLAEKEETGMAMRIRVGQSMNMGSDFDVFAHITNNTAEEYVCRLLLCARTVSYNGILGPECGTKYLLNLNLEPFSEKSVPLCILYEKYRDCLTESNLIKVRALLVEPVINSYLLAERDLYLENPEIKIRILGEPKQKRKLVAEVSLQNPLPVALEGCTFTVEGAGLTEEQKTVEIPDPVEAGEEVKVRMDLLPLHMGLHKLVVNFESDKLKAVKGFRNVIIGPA
In words: Transglutaminase activity of homogenates of LPS-stimulated BEAS-2B cells. The data set is classed as cell-based. The conditions noted are these: 0-200 μM. On the procedure: A) Transglutaminase activity of homogenates from BEAS-2B-cell grown in the presence of 0-200 μM E22 and stimulated with LPS determined by TG2-selective Tissue Transglutaminase Pico-Assay Kit (#M003, Zedira, Darmstadt, Germany) according to the manufacturer's instructions.
Extracellular matrix deposition is a hallmark in pulmonary fibrosis. The BEAS-2B cell line is derived from normal human bronchial epithelium.
BEAS-2B cells were grown at 37° C. and 5% CO2 in 25 mM HEPES-buffered M199-medium (Merck, Darmstadt) containing 10% FBS, […], 2 mM glutamine, 100 U/ml penicillin (supplemented with […] apotransferrin, 20 ng/ml human epidermal growth factor (EGF), […] insulin, and 0.361 mg/ml hydrocortisone). For the induction of airway fibrosis by epithelial-to-mesenchymal transition (EMT), cells were seeded at 80% confluence on six-well plates. After one day cultivation 4 μg/mL LPS as well as 0 μM, 100 μM or 200 μM E22 were added and then incubated for further 72 h.

In the case of `COC(=O)[C@H](CC(C)C)NC(=O)[C@@H]1CCCN1C(=O)[C@@H](NC(=O)[C@H](CCC(=O)C(N)=O)NC(=O)OCc1ccccc1)C(C)C` [Compound E02, (S)-methyl 2-((S)-1-((S)-2-((S)-6-amino-2-(benzyloxycarbonylamino)-5,6-dioxo-hexanamido)-3-methylbutanoyl)pyrrolidine-2-carboxamido)-4-methylpentanoate], in data set [1], the “no influence on cell proliferation or metabolic activity up to” value was greater than 1 mM. On to `CCCCCNC(=O)C(=O)CC[C@H](NC(=O)[C@@H]1CCCN1C(C)=O)C(=O)Nc1cccn(CC(=O)NCC(CC)CC)c1=O` [Compound E22, (S)-2-((S)-1-acetylpyrrolidine-2-carboxamido)-N1-(1-(2-(2-ethylbutylamino)-2-oxoethyl)-2-oxo-1,2-dihydropyridin-3-yl)-5-oxo-N6-pentylhexanediamide], for which the Transglutaminase activity result in data set [2] was “dose dependent reduction”.
